Experimental data as given in US20170298051A1, “ACTIVATOR OF ADIPONECTIN RECEPTOR” (THE UNIVERSITY OF TOKYO, priority 2013, published 2017).

Legend:
mice on a HF diet = assay: Hyperinsulinemic euglycemic clamp study in mice on a HF diet; format: in vivo
Description: Clamp studies were carried out as described previously^a,b, with slight modifications. In brief, 2-3 days before the study, an infusion catheter was inserted into the right jugular vein under general anesthesia with sodium pentobarbital. Studies were performed on mice under conscious and unstressed conditions after a 6 h fast. A primed continuous infusion of insulin (Humulin R, Lilly) was given (10.0 milliunits/kg/min),and the blood glucose concentration, monitored every 5 min, was maintained at 120 mg/dl by administration of glucose (5 g of glucose per 10 ml enriched to 20% with [6,6-^2H2] glucose (Sigma)) for 120 min. Blood was sampled via tail tip bleeds at 90, 105, and 120 min for determination of the rate of glucose disappearance (Rd). Rd was calculated according to nonsteady-state equations, and endogenous glucose production (EGP) was calculated as the difference between Rd and exogenous glucose infusion rates^a,b,c.

mice fed a HF diet = assay: Effects on lipid metabolism: plasma triglycerides and free fatty acid in mice fed a HF diet; format: in vivo
Description: (§1) Mice were 6-10 week of age at the time of the experiment. They were housed in cages and maintained on a 12 hr light-dark cycle.
(§2) Plasma glucose levels were determined by using a glucose B-test (Wako Pure Chemical Industries). Plasma insulin was measured with an insulin immunoassay (Shibayagi). Plasma NEFAs (Wako Pure Chemical Industries) were assayed by enzymatic methods.

db/db mice = assay: TG content, oxidative stress and inflammation in insulin target tissues in db/db mice; format: in vivo
Description: (§3) Mitochondrial content assays were carried out as described previously^a,b, with slight modifications. For quantification of mitochondrial content, we used mtDNAas previously described^c.
(§4) Real-time PCR was carried out according to the method described previously^a,b,c. Total RNA was prepared from cells or tissues with Trizol (Invitrogen) according to the manufacturer's instructions. We used a real-time PCR method to quantify the mRNAs^19, with slight modifications.
(§5) Skeletal muscle homogenates were extracted, and tissue triglyceride content was determined as described previously^a-c, with some modifications. To investigate whether oxidative stress was increased, we measured lipid peroxidation, a marker of oxidative injury, as represented by plasma thiobarbituric acid reactive substance (TBARS) as described previously^4. Briefly, tissue samples were homogenized in a buffer solution containing 50 mM Tris-HCl (pH 7.4) and 1.15% KCl, and then centrifuged. The supernatant was used for the assay. The levels of lipid peroxidation in tissue homogenate and plasma were measured in terms of the amount of TBARS using the LPO test (Wako Pure Chemical Industries).

Human AdipoR2 = molecular target: T1, Human AdipoR2 (Homo sapiens, UniProt Q86V24); assay: Surface plasmon resonance, affinity for AdipoR2; format: binding; conditions: SPR
T1 construct: made in house
T1 sequence (Q86V24 1-386): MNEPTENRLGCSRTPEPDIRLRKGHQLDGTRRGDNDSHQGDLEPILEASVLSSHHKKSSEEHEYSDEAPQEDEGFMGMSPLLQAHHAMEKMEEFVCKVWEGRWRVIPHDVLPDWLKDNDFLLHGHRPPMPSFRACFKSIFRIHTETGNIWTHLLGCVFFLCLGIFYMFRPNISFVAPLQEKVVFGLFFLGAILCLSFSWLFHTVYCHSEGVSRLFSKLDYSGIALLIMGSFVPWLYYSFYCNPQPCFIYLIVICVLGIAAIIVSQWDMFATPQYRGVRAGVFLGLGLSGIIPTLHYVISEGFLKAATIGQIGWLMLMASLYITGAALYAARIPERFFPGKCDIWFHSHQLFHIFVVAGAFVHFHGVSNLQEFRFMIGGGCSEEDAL
Description: Surface plasmon resonance measurements were performed by a BIAcore X100 system (GE Healthcare) and sensor chip SA (GE Healthcare). Human AdipoR1 and AdipoR2 were expressed with the baculovirus system, and purified to homogeneity. The AdipoR1 and AdipoR2 samples were then reconstituted into egg-phosphatidylcholine liposomes containing biotinyl phosphatidylethanolamine (Avanti), as previously reported^a. Mouse full-length adiponectin was generated as previously described^b,c,d,e. AdipoR1 and AdipoR2 were immobilized onto a sensor chip SA to levels of 2,500-3,000 response units (RU) using standard immobilization protocols (GE Healthcare).
Experiments were performed at 25° C. using AdipoRon (0.49-31.25 μM) and adiponectin (1.5 ng-3.75 μg) and using electrophoresis buffer (20 mM Hepes (pH 7.4), 200 mM NaCl, 10% glycerol, […] surfactant P20). Biacore X100 Evaluation Software was used to determine the equilibrium dissociation constant (KD) of the compound or proteins.

[1] = system: HF diet-induced obese mice; assay: Oral glucose tolerance test and insulin tolerance in HF diet-induced obese mice; format: in vivo; conditions: WT mice on HF diet, oral 50 mg/kg, 10 days
Description: The original Adipor1^+/−/Adipor2^+/− mice (C57BL/6 and 129/Sv mixed background)^a were backcrossed with C57B1/6 mice more than seven times. All experiments in this study were conducted on male littermates.
as §1, §2
The oral glucose tolerance test (OGTT) and insulin tolerance test (ITT) were conducted as previously described^a,b with slight modifications. The areas of the glucose and insulin curves were calculated by multiplying the cumulative mean height of the glucose values (1 mg/ml=1 cm) and insulin values (1 ng/ml=1 cm), respectively, by time (60 min=1 cm)^c,a. The insulin resistance index was calculated from the product of the areas of glucose and insulin×10^−2 in the glucose tolerance test. The results are expressed as the percentage of the value respect to control littermates.

rhodopsin receptor = assay: Surface plasmon resonance, rhodopsin receptor control; format: binding; conditions: SPR
[2] = system: AdipoR1-AMPK-PGC-1α pathways in skeletal muscle; assay: Skeletal muscle: gene expression, mitochondrial DNA content, TG content, TBARS in mice fed a HF diet; format: in vivo
Description: as §3, §4, §5

[3] = Adipor1/r2 double-knockout mice
[4] = WT mice on HF diet, 10 days of administration
[5] = WT mice fed a HF diet, oral 50 mg/kg, 10 days

O=C(COc1ccc(C(=O)c2ccccc2)cc1)NC1CCN(Cc2ccccc2)CC1 [Compound 73, 2-(4-benzoyl-phenoxy)-N-(1-benzylpiperidin-4-yl)acetamide]
GIR, EGP and Rd (mice on a HF diet; [3]): None of these parameters were improved
endogenous glucose production (EGP) (mice on a HF diet; [4]): significantly suppressed
glucose disposal rate (Rd) (mice on a HF diet; [4]): significantly increased
glucose infusion rate (GIR) (mice on a HF diet; [4]): significantly increased
reduction of plasma TG and FFA (mice fed a HF diet; [3]): not observed
plasma concentration of free fatty acid (FFA) (mice fed a HF diet; [5]): reduced
plasma concentration of triglycerides (TG) (mice fed a HF diet; [5]): reduced
TG content in the liver (db/db mice): significantly reduced TG content
expression levels of genes encoding pro-inflammatory cytokines in the liver (db/db mice): reduced expression levels
expression levels of genes encoding pro-inflammatory cytokines, macrophage markers, M1 macrophage markers in the WAT (db/db mice): reduced the expression levels
expression of Pparα and its target genes in the liver (db/db mice): increased the expression
expressions of Ppargc1a, Pck1 and G6pc in the liver (db/db mice): significantly decreased expressions
oxidative stress in the liver (db/db mice): significantly reduced
TG content and TBARS in skeletal muscles (db/db mice; oral): decreased TG content and TBARS
levels of Acadm and Sod2 in skeletal muscles (db/db mice; oral): significantly increased
levels of genes involved in mitochondrial biogenesis functions and DNA content in skeletal muscles (db/db mice; oral): significantly increased
Rmax (Human AdipoR2): 8.6 RU
Kd (Human AdipoR2; 25° C., read-out: equilibrium dissociation constant (KD)): 3.1 µM
fasting plasma glucose and insulin levels, glucose and insulin responses during OGTT [1]: significant decrease
insulin sensitivity [1]: improved insulin sensitivity
reaction with rhodopsin receptor (control) (rhodopsin receptor): does not react a rhodopsin receptor at all
effects on mitochondrial genes and mitochondrial DNA content in skeletal muscle [2, 3]: totally obliterated
levels of type I fiber marker Troponin I (slow) (Tnni1) [2, 3]: but not in Adipor1/r2 double-knockout mice
effect on Sod2 and TBARS ([2]; Adipor1/r2 double-knockout mice fed with a HF diet): such effect was not observed
levels of type I fiber marker Troponin I (slow) (Tnni1) ([2]; WT mice): increased the levels
mitochondrial DNA content in skeletal muscle ([2]; WT mice): increased mitochondrial DNA content
TG content in the skeletal muscle ([2]; WT mice fed with a HF diet): decreased TG content
expression levels of oxidative stress detoxifying genes such as Sod2 ([2]; skeletal muscle, WT mice): significantly increased expression levels
genes involved in fatty acid oxidation such as Acadm ([2]; skeletal muscle, WT mice): significantly increased
oxidative stress markers such as TBARS ([2]; skeletal muscle, WT mice): decreased oxidative stress markers
